From patent US20230038373A1, “STABILE CONJUGATE” (Glykos Biomedical OY, priority 2019, published 2023)
Values joined by “and” are separate entries in the source; they are usually repeats but may differ in a detail not shown here. Equal values may be shown once.

Experiments:
[1] = Stability of kifunensine ester compounds in mouse serum (MALDI-TOF MS); type: in vitro ADME; conditions: 4 days' incubation in mouse serum at +37° C.
Method: (§1) Serum was obtained from laboratory mice according to ethical permission, or from healthy human volunteers, and prepared with standard procedures. Buffer stability test were performed either in phosphate-buffered saline (PBS, Gibco) or standard cell culture medium recommended for SK-BR-3 cells by the ATCC (about neutral pH). Payload-linker molecules were incubated in serum, buffer or medium, after which the incubation mixture was analyzed by MALDI-TOF MS as described above. […] Similar studies were also conducted with the 33DFTG-ester compounds, further verifying the observation of stabilization by carboxylic acid modifications of the ester against esterase hydrolysis. However, all the kifunensine ester compounds, when applied in 10 μM concentration to SK-BR-3 cell culture for three days, were active in mannosidase I inhibition (as shown by MALDI-TOF MS analysis of neutral N-glycans of the SK-BR-3 cells after the incubation as described below), showing that regardless of the relative protection from serum esterase hydrolysis, the esters could still be hydrolysed in cells to liberate the active payload.

[2] = Stability of kifunensine ester compounds in buffered cell culture medium (MALDI-TOF MS); type: physicochemical; conditions: 5 days' incubation in buffered cell culture medium at +37° C.; signal vs hydrolysis product kifunensine
Method: as §1

[3] = tested on: immature dendritic cells (iDCs) with SK-BR-3 cells; test: Dendritic cell activation assay (iDC / SK-BR-3 co-culture, fractalkine secretion); type: cell-based, human; conditions: 5 nM test compound
Excerpt: Monocytes were isolated from human peripheral blood (buffy coat) from healthy adult donors (Finnish Red Cross Blood Service) by using magnetic-activated microbead based cell sorting for CD14 positive cells (Miltenyi Biotec). Monocytes were differentiated to immature dendritic cells (iDCs) by using Mo-DC Differentiation Medium (Miltenyi Biotec) according the manufacturer's instructions. On day 6, to analyze cell surface expression of maturation markers, the iDCs were labeled with specific monoclonal antibodies for CD209 (R&D Systems) and CD14 (eBioscience). Nonspecific antibody binding was assessed using appropriate isotype controls. The iDCs were used for co-culture experiment on day 7.
SK-BR-3 cells (ATCC) were cultured in DMEM (Gibco) containing GlutaMAX and supplemented with 10% heat-inactivated fetal bovine serum (FBS, Gibco). SK-BR-3 cells were plated in 96-well plate (5000 c/well) in the presence or absence of […] kifunensine (Carbosynth Limited) and cultured for 5 days. Before start of the co-culture, SK-BR-3 cells were washed twice with RPMI 1640 medium (Gibco). Differentiated iDCs were collected and 0.11×10^6 cells/well were added together with the test compounds to SK-BR-3 cells and cells were incubated for 24 h at +37° C. in 5% CO2. The experiment medium was RPMI 1640 medium (Gibco) containing 10 mM Hepes and 2 mM glutamine and supplemented with 10% FBS (Gibco). All treatments were performed as duplicates. […] Phorbol 12-myristate 13-acetate (PMA, Abcam) was used as positive control. After 24 h co-culture of iDCs and SKBR-3 cells, the cell supernatants were collected and centrifuged (3000 g, 5 min, +4° C.) to remove cells and debris. The supernatants were frozen and subjected to cytokine and chemokine analysis with Human Cytokine 48-Plex Discovery Assay (EVE Technologies, Canada).

[4] = tested on: B16-F10 melanoma subcutaneous tumor; test: Syngeneic B16-F10 melanoma subcutaneous tumor model; type: in vivo, C57BL/6J mice; conditions: day 15; three 10 mg/kg doses on days 2, 7 and 12 (i.v.; anti-PD-1 i.p.); control group 1534 mm^3
Method: Treatment groups (n=7) were administered with three 10 mg/kg intravenous infusions of antibody or ADC to the tail vein in PBS on days 2, 7 and 12 after subcutaneous inoculation of 0.5 million B16-F10 cells in each mouse. Anti-PD-1 antibody (n=7) was administered by intraperitoneal injection. Control mice (n=5) received no injections. Plotting of the average tumor size was stopped when first mouse in the group was killed due to tumor growth.
Tumor growth was followed by palpation. After caliper measurement, tumor volume was calculated according to 0.5×length×width^2. The first dosings were administered 2 days after inoculation and subsequent doses at 5 days' intervals. Mice were randomly divided into study groups.
The B16-F10 tumor-bearing mice (strain C57BL/6J) were administered as described above with three 10 mg/kg i.v. (intravenous infusion to the tail vein in PBS) doses each of avelumab, avelumab-cyclo-MeMe-kifunensine (DAR=21-28) and avelumab-AANA-kifunensine (DAR=8) as well as with three 10 mg/kg i.p. (intraperitoneal injection in PBS) doses of anti-mouse-PD-1 antibody (InvivoMAb, clone RMP1-14, rat IgG2a kappa). Control mice received no injections. All study groups included 7 tumor-bearing mice while the control group included 5 tumor-bearing mice.

[5] = tested on: HCC-1954 xenograft tumors; test: HCC-1954 xenograft: N-glycan profiling of tumors and tissues after ADC dosing; type: in vivo, mice (Balb/cAnNRj-Foxn1nu-nu); conditions: three 10 mg/kg i.v. doses, tumors collected on day 8
Method: The study was performed at the TCDM/Central Animal Laboratory, University of Turku, Finland, according to the appropriate ethical committee approval. Cells for inoculation to mice were prepared in vigorous exponential growth phase. 5 million cells in 50% Matrigel were inoculated s.c. to the flank of each mouse. Clinical signs and general behavior of the animals was observed regularly. […] Tumor growth was followed by palpation. After caliper measurement, tumor volume was calculated according to 0.5×length×width^2. The first dosings were administered when average tumor volume reached […]. Mice were evenly divided into study groups so that each group received similar distribution of different-sized tumors and the average tumor volumes were similar in each group. The mice received two additional dosings at 3 days and 6 days after the first dosing. Control mice received no dosings. At the end of the study on day 8 after the first dosing, the mice were sacrificed and representative samples of the tumors, blood (serum), liver, spleen, skin and muscle were taken and frozen for analyses.
Test substances were prepared as described above. […] The samples were subjected to N-glycan profiling with MALDI-TOF MS essentially as described above.

mannosidase I [6] = test: ADC activity in SK-BR-3 cells after incubation of the ADC in human and mouse sera; type: cell-based; conditions: 7 days' incubation in both human and mouse sera, then 10 nM in SK-BR-3 culture for three days
processing α-mannosidase [7] = test: N-glycan profile of JIMT-1 cancer cells after kifunensine or ADC; type: cell-based; conditions: JIMT-1 cells, 3-4 days
Method: (§2) JIMT-1 cancer cells (DSMZ-German Collection of Microorganisms and Cell Cultures; variable/medium HER2 expression) and HCC-1954 cancer cells (ATCC; high HER2 expression) were cultured according to the manufacturers' instructions in standard cell culture conditions and incubated for 3-4 days with either […] kifunensine or trastuzumab-kifunensine ADCs. Effect on N-glycan profiles of the cells was analyzed by isolating cellular N-glycans and MALDI-TOF MS as described above.

processing α-mannosidase [8] = test: N-glycan profile of HCC-1954 cancer cells after kifunensine or ADC; type: cell-based; conditions: HCC-1954 cells, 3-4 days; 10 pM kifunensine; 10 nM or 100 nM ADC
Method: as §2

mannosidase I [9] = test: N-glycan profiling of SK-BR-3 cells after inhibitor/ADC treatment (mannosidase I inhibition); type: cell-based; conditions: 10 μM, 3 days
Method: SK-BR-3 breast cancer cells (ATCC) were cultured in recommended conditions and incubated with glycosylation inhibitors and ADCs for three days. The cells were then subjected to N-glycan profiling with MALDI-TOF MS essentially as described in Leijon et al. 2017, J Clin Endocrinol Metab 102(11):3990-4000, although without the deparaffinization step.

[10] = SK-BR-3 + iDCs 24 h co-culture, SK-BR-3 pretreated with 10 pM kifunensine for 5 days

## CC(C)(C)C(=O)OC[C@@H]1[C@@H](O)[C@H](O)[C@H](O)[C@H]2NC(=O)C(=O)N12 [6-(2,2-dimethyl)propanoyl-kifunensine, 9-(2,2-dimethylpropionyl)-kifunensine ester]
[1]
  compound detected after incubation in mouse serum (ester hydrolysis): still present
[2]
  stability against chemical hydrolysis in neutral pH: reasonably stable

## CCCC(=O)OC[C@@H]1[C@@H](O)[C@H](O)[C@H](O)[C@H]2NC(=O)C(=O)N12 [6-butanoyl-kifunensine, 9-butanoyl-kifunensine ester]
[1]
  compound detected after incubation in mouse serum (ester hydrolysis): not detected on day 4
[2]
  stability against chemical hydrolysis in neutral pH: reasonably stable

## CCCCCCCCCCCCCC(=O)O[C@@H]1[C@@H](C)[C@@]2(O)[C@@H](C=C(CO)C[C@]3(O)C(=O)C(C)=C[C@@H]23)[C@@H]2C(C)(C)[C@]12OC(C)=O [PMA, Phorbol 12-myristate 13-acetate]
[3]; [10]
  Fractalkine: 158.90 pg/mL
[3]; SK-BR-3 + iDCs 24 h co-culture, without kifunensine pretreatment
  Fractalkine: 45.18 pg/mL
[3]; iDCs without SK-BR-3 cells
  Fractalkine: 8.27 pg/mL

## avelumab: recombinant fully human IgG1 anti-PD-L1 antibody (Bavencio)
[4]
  average tumor volume: 472 mm^3

## CC[C@H](C)C(=O)OC[C@@H]1[C@@H](O)[C@H](O)[C@H](O)[C@H]2NC(=O)C(=O)N12 [6-(2-methyl)butanoyl-kifunensine, 9-(2-methylbutanoyl)-kifunensine ester]
[1]
  compound detected after incubation in mouse serum (ester hydrolysis): not detected on day 4
[2]
  stability against chemical hydrolysis in neutral pH: reasonably stable

## trastuzumab-[DBCO-PEG4-(octakis-amino)-γ-cyclodextrin-(9-(di-3-thio-propanoyl)-kifunensine)7]4 [trastuzumab-cyclo-kifunensine]
[5]
  average mannose residues (Man) in the Man5-9GlcNAc2 glycan signal series of tumors: 7.36
  proportion of complex-type N-glycans in the tumors: 11%
  proportion of high-mannose type N-glycans of the total neutral N-glycans in the tumors: 78%
Mannosidase I [6]
  reduction of activity after serum incubation: over 50%

## O=C(O)CCC(=O)OC[C@@H]1[C@@H](O)[C@H](O)[C@H](O)[C@H]2NC(=O)C(=O)N12 [6-succinyl-kifunensine, 9-succinyl-kifunensine]
[1]
  compound detected after incubation in mouse serum (ester hydrolysis): still present
[2]
  stability against chemical hydrolysis in neutral pH: reasonably stable

## O=C1N[C@@H]2[C@@H](O)[C@@H](O)[C@H](O)[C@@H](CO)N2C1=O [kifunensine]
Processing α-mannosidase [7]
  N-glycan profile change (Man9 increase, complex-type decrease) relative to HCC-1954 cells: less intensive
Processing α-mannosidase [8]
  relative proportion of complex-type N-glycans: drastically diminished
Mannosidase I [9]
  average number of mannose residues (Man) in the Man5-9GlcNAc2 glycan signal series: over 8.5
[3]; [10]
  Fractalkine: 121 pg/mL and 120.94 pg/mL

## trastuzumab-[GalNAz-DBCO-PEG4-(octakis-amino)-γ-cyclodextrin-(9-(4-methyl-4-thio-butanoyl-3-thiopropanoyl)-kifunensine)7]4 [trastuzumab-cyclo-Me-kifunensine]
Processing α-mannosidase [7]
  N-glycan profile change (Man9 increase, complex-type decrease) relative to HCC-1954 cells: less intensive
Processing α-mannosidase [8]
  relative proportion of complex-type N-glycans: drastically diminished
[5]
  average mannose residues (Man) in the Man5-9GlcNAc2 glycan signal series of tumors: 7.40
  proportion of complex-type N-glycans in the tumors: 10%
  proportion of high-mannose type N-glycans of the total neutral N-glycans in the tumors: 80%
